Results from patent US9149038B2, “4-amino-6-(heterocyclic)picolinates and 6-amino-2-(heterocyclic)pyrimidine-4-carboxylates and their use as herbicides” (Dow AgroSciences LLC, priority 2013, dated 2015).
Where two headings read alike, the source gives them in different places.

How the values were obtained:
[1] = tested on: Key Broadleaf Weed and Crop Species; test: Post-Emergent Test II: postemergent herbicidal activity, visual rating after 14 d (Table 7); assay type: in vivo; conditions: post-emergence, 336 h; for pest or weed control at 35 g/ha: 35 g ai/ha; for pest or weed control at 70 g/ha: 70 g ai/ha; for pest or weed control at 140 g/ha: 140 g ai/ha
Procedure, shortened: (§1)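 Track-sprayed young seedlings (first/second true leaf) at 187 L/ha across a 2-fold rate series from the high rate down to 1/16×. Kept in greenhouse at 23-29° C day, subirrigated. Injury rated by eye after 14 d, 0 = no injury, 100 = complete kill.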

[2] = tested on: Key Grass and Sedge Weeds as well as Grass Crops; test: Post-Emergent Test II: postemergent herbicidal activity, visual rating after 14 d (Table 8); assay type: in vivo; conditions: post-emergence, 336 h; for pest or weed control at 35 g/ha: 35 g ai/ha; for pest or weed control at 70 g/ha: 70 g ai/ha; for pest or weed control at 140 g/ha: 140 g ai/ha
Procedure, shortened: as §1

[3] = lambsquarters (Chenopodium album), read-out: Visual Growth Reduction (%) 14 Days After Application CHEAL
[4] = oilseed rape, canola (Brassica napus), read-out: Visual Growth Reduction (%) 14 Days After Application BRSNN
[5] = redroot pigweed (Amaranthus retroflexus), read-out: Visual Growth Reduction (%) 14 Days After Application AMARE
[6] = sunflower (Helianthus annuus), read-out: Visual Growth Reduction (%) 14 Days After Application HELAN
[7] = velvetleaf (Abutilon theophrasti), read-out: Visual Growth Reduction (%) 14 Days After Application ABUTH
[8] = wild poinsettia (Euphorbia heterophylla), read-out: Visual Growth Reduction (%) 14 Days After Application EPHHL
[9] = barnyardgrass (Echinochloa crus-galli), read-out: Visual Growth Reduction (%) 14 Days After Application ECHCG
[10] = giant foxtail (Setaria faberi), read-out: Visual Growth Reduction (%) 14 Days After Application SETFA
[11] = maize, corn (Zea mays), read-out: Visual Growth Reduction (%) 14 Days After Application ZEAMX
[12] = rice (Oryza sativa), read-out: Visual Growth Reduction (%) 14 Days After Application ORYSA
[13] = wheat, spring (Triticum aestivum), read-out: Visual Growth Reduction (%) 14 Days After Application TRZAS
[14] = yellow nutsedge (Cyperus esculentus), read-out: Visual Growth Reduction (%) 14 Days After Application CYPES

Structure (SMILES)	pest or weed control at 35 g/ha [1, 3] [%]	pest or weed control at 70 g/ha [1, 3] [%]	pest or weed control at 140 g/ha [1, 3] [%]	pest or weed control at 35 g/ha [1, 4] [%]	pest or weed control at 70 g/ha [1, 4] [%]	pest or weed control at 140 g/ha [1, 4] [%]	pest or weed control at 35 g/ha [1, 5] [%]	pest or weed control at 70 g/ha [1, 5] [%]	pest or weed control at 140 g/ha [1, 5] [%]	pest or weed control at 35 g/ha [1, 6] [%]	pest or weed control at 70 g/ha [1, 6] [%]	pest or weed control at 140 g/ha [1, 6] [%]	pest or weed control at 35 g/ha [1, 7] [%]	pest or weed control at 70 g/ha [1, 7] [%]	pest or weed control at 140 g/ha [1, 7] [%]	pest or weed control at 35 g/ha [1, 8] [%]	pest or weed control at 70 g/ha [1, 8] [%]	pest or weed control at 140 g/ha [1, 8] [%]	pest or weed control at 35 g/ha [2, 9] [%]	pest or weed control at 70 g/ha [2, 9] [%]	also measured
COC(=O)c1nc(-c2ccc3c(c2)OC(F)(F)O3)nc(N)c1Cl [Compound 60]	60 to 74	75 to 84	85 to 94	45 to 59	60 to 74	60 to 74	0 to 29	30 to 44	45 to 59	75 to 84	75 to 84	75 to 84	30 to 44	60 to 74	75 to 84	75 to 84	75 to 84	85 to 94	60 to 74	75 to 84	pest or weed control at 140 g/ha [2, 9]: 85 to 94%; pest or weed control at 35 g/ha [2, 10]: 30 to 44%; pest or weed control at 70 g/ha [2, 10]: 60 to 74%; pest or weed control at 140 g/ha [2, 10]: 75 to 84%; pest or weed control at 35 g/ha [2, 11]: 60 to 74%; pest or weed control at 70 g/ha [2, 11]: 75 to 84%; pest or weed control at 140 g/ha [2, 11]: 85 to 94%; pest or weed control at 35 g/ha [2, 12]: 0 to 29%; pest or weed control at 70 g/ha [2, 12]: 0 to 29%; pest or weed control at 140 g/ha [2, 12]: 0 to 29%; pest or weed control at 35 g/ha [2, 13]: 45 to 59%; pest or weed control at 70 g/ha [2, 13]: 60 to 74%; pest or weed control at 140 g/ha [2, 13]: 60 to 74%; pest or weed control at 35 g/ha [2, 14]: 75 to 84%; pest or weed control at 70 g/ha [2, 14]: 85 to 94%; pest or weed control at 140 g/ha [2, 14]: 85 to 94%
COC(=O)c1nc(-c2ccc3c(c2)OC(C)(C)O3)c(F)c(N)c1Cl [Compound 8]	45 to 59	75 to 84	85 to 94	60 to 74	60 to 74	75 to 84	0 to 29	45 to 59	60 to 74	0 to 29	45 to 59	85 to 94	95 to 100	95 to 100	95 to 100	95 to 100	95 to 100	95 to 100	95 to 100	95 to 100	pest or weed control at 140 g/ha [2, 9]: 95 to 100%; pest or weed control at 35 g/ha [2, 10]: 85 to 94%; pest or weed control at 70 g/ha [2, 10]: 95 to 100%; pest or weed control at 140 g/ha [2, 10]: 95 to 100%; pest or weed control at 35 g/ha [2, 11]: 95 to 100%; pest or weed control at 70 g/ha [2, 11]: 95 to 100%; pest or weed control at 140 g/ha [2, 11]: 95 to 100%; pest or weed control at 35 g/ha [2, 12]: 0 to 29%; pest or weed control at 70 g/ha [2, 12]: 0 to 29%; pest or weed control at 140 g/ha [2, 12]: 30 to 44%; pest or weed control at 35 g/ha [2, 13]: 0 to 29%; pest or weed control at 70 g/ha [2, 13]: 30 to 44%; pest or weed control at 140 g/ha [2, 13]: 30 to 44%; pest or weed control at 35 g/ha [2, 14]: 95 to 100%; pest or weed control at 70 g/ha [2, 14]: 95 to 100%; pest or weed control at 140 g/ha [2, 14]: 95 to 100%
Nc1c(F)c(-c2ccc(F)c3c2OC(F)(F)O3)nc(C(=O)O)c1Cl [Compound 77]	85 to 94	95 to 100	95 to 100	75 to 84	85 to 94	95 to 100	95 to 100	95 to 100	95 to 100	85 to 94	95 to 100	95 to 100	30 to 44	60 to 74	75 to 84	0 to 29	0 to 29	0 to 29	0 to 29	0 to 29	pest or weed control at 140 g/ha [2, 9]: 0 to 29%; pest or weed control at 35 g/ha [2, 10]: 0 to 29%; pest or weed control at 70 g/ha [2, 10]: 0 to 29%; pest or weed control at 140 g/ha [2, 10]: 0 to 29%; pest or weed control at 35 g/ha [2, 11]: 0 to 29%; pest or weed control at 70 g/ha [2, 11]: 0 to 29%; pest or weed control at 140 g/ha [2, 11]: 0 to 29%; pest or weed control at 35 g/ha [2, 12]: 0 to 29%; pest or weed control at 70 g/ha [2, 12]: 0 to 29%; pest or weed control at 140 g/ha [2, 12]: 0 to 29%; pest or weed control at 35 g/ha [2, 13]: 45 to 59%; pest or weed control at 70 g/ha [2, 13]: 60 to 74%; pest or weed control at 140 g/ha [2, 13]: 60 to 74%; pest or weed control at 35 g/ha [2, 14]: 0 to 29%; pest or weed control at 70 g/ha [2, 14]: 0 to 29%; pest or weed control at 140 g/ha [2, 14]: 0 to 29%
COC(=O)c1nc(-c2cc3c(cc2F)OC(F)(F)O3)c(F)c(N)c1Cl [Compound 9]	85 to 94	85 to 94	85 to 94	75 to 84	85 to 94	95 to 100	0 to 29	0 to 29	0 to 29	85 to 94	85 to 94	95 to 100	75 to 84	85 to 94	95 to 100	75 to 84	85 to 94	85 to 94	85 to 94	85 to 94	pest or weed control at 140 g/ha [2, 9]: 95 to 100%; pest or weed control at 35 g/ha [2, 10]: 45 to 59%; pest or weed control at 70 g/ha [2, 10]: 60 to 74%; pest or weed control at 140 g/ha [2, 10]: 75 to 84%; pest or weed control at 35 g/ha [2, 11]: 60 to 74%; pest or weed control at 70 g/ha [2, 11]: 60 to 74%; pest or weed control at 140 g/ha [2, 11]: 75 to 84%; pest or weed control at 35 g/ha [2, 12]: 0 to 29%; pest or weed control at 70 g/ha [2, 12]: 0 to 29%; pest or weed control at 140 g/ha [2, 12]: 0 to 29%; pest or weed control at 35 g/ha [2, 13]: 30 to 44%; pest or weed control at 70 g/ha [2, 13]: 45 to 59%; pest or weed control at 140 g/ha [2, 13]: 60 to 74%; pest or weed control at 35 g/ha [2, 14]: 95 to 100%; pest or weed control at 70 g/ha [2, 14]: 95 to 100%; pest or weed control at 140 g/ha [2, 14]: 95 to 100%
